# Assays:
# [1] = Solubility in organic solvents (statements in the description)
# [2] = Solubility investigations of the dyes prepared in accordance with Examples 31 to 34
# physchem = conditions: water
# [3] = acetonitrile, organic solvent or mixture, Solubility, CH3CN
# [4] = dichloromethane, organic solvent or mixture, Solubility, CH2Cl2
# [5] = ethanol, organic solvent or mixture, Solubility
structure (smiles),measurement,setting,value
CC[N+](CC)=c1ccc2nc3c(cc(N)c4ccccc43)oc-2c1 [Nile Blue [(CF3SO2)2N]^−],Solubility in benzene,[1]; listed as Nile Blue Im,soluble
same,Solubility in dimethyl carbonate,[1]; listed as Nile Blue Im,readily or very readily soluble
"CN(C)c1ccc(C(=C2C=CC(=[N+](C)C)C=C2)c2ccc(N(C)C)cc2)cc1 [Crystal Violet [B(CF3)4]^−, Crystal Violet as tetrakis(trifluoromethyl)borate]",solubility,[2]; H2O,insoluble
same,solubility,[2]; Pentane,insoluble
same,solubility,[2]; [3],> 5000 µg/mL
same,solubility,[2]; [4],> 10000 µg/mL
same,solubility,[2]; [5],> 10000 µg/mL
CCN(CC)c1ccc2nc3ccc(/N=N/c4ccc(N(C)C)cc4)cc3[n+](-c3ccccc3)c2c1 [Janus Green [(CF3SO2)2N]^−],Solubility in benzene,[1],soluble
"CC[N+](CC)=c1ccc2nc3c(cc(N)c4ccccc43)oc-2c1 [Nile Blue Hydrogensulfate anion, Nile Blue hydrogensulfate, reference compound]",Solubility in benzene,[1],insoluble
same,Solubility in dimethyl carbonate,[1]; listed as Nile Blue with hydrogensulfate as anion,insoluble
"Cc1cc2nc3cc(C)c(N)cc3[n+](-c3ccccc3)c2cc1N [Safranine O [B(CF3)4]^−, safranine O as tetrakis(trifluoromethyl)borate]",solubility,physchem,< 10 µg/mL
"CC[N+](CC)=c1ccc2nc3c(cc(N)c4ccccc43)oc-2c1 [Nile Blue [B(CF3)4]^−, Nile Blue as tetrakis(trifluoromethyl)borate]",solubility,[2]; Pentane,insoluble
same,solubility,[2]; [3],> 2000 µg/mL
same,solubility,[2]; [4],> 5000 µg/mL
same,solubility,[2]; [5],> 3000 µg/mL
same,solubility,"[2]; water, Solubility, H2O",< 10 µg/mL
same,Solubility in benzene,[1]; listed as Nile Blue FAB,soluble
same,Solubility in dimethyl carbonate,[1]; listed as Nile Blue FAB,readily or very readily soluble
CC[N+](CC)=c1ccc2nc3c(cc(N)c4ccccc43)oc-2c1 [Nile Blue [(C2F5)3PF3]^−] [Nile Blue as tris(pentafluoroethyl)trifluorophosphate],Solubility in benzene,[1]; listed as Nile Blue FAP,soluble
same,Solubility in dimethyl carbonate,[1]; listed as Nile Blue FAP,readily or very readily soluble
"CC[N+](CC)=c1ccc2nc3c(cc(N)c4ccccc43)oc-2c1 [Nile Blue [B(CN)4]^−, Nile Blue as tetracyanoborate]",Solubility in benzene,[1]; listed as Nile Blue CAB,soluble
same,Solubility in dimethyl carbonate,[1]; listed as Nile Blue CAB,readily or very readily soluble
"CCN(CC)c1ccc2nc3ccc(N=Nc4ccc(N(C)C)cc4)cc3[n+](-c3ccccc3)c2c1.[Cl-] [Janus Green Cl^−, Janus Green, reference compound]",Solubility in benzene,[1],insoluble

# Source: patent US20080275224A1, “Cyanoborate, Fluoroalkylphosphate, Fluoroalkylborate or Imide Dyes” (priority 2003, published 2008)
